In the assay the test system is Artemia salina. Conditions: in vivo, 24 h. How it is done:
Alpha-Nemertides were prepared as described in Example 2, above, or by manual synthesis […] on 2-chlorotrityl resin as described in the Material and methods section below. […]. The brine shrimp assay is commonly used as toxicity assay, but is particularly suitable in the current work as a model system for crustaceans. In the first round of experiments Nemertides α-1, α-2, α-5, and α-6 were evaluated. […]. Artemia salina Assay of Alpha-Nemertides. 100 μl of sea water containing about 20-30 brine shrimps were added to each experimental well of a 96-well microplate. 100 μl of peptide solutions were then added to each well. As a control, some wells were filled with 100 μl of seawater containing shrimps and 100 μl milliQwater. The plates were covered and incubated in the dark at room temperature for 24 hours. After 24 hours, 10 second video clips of each well were filmed through a microscope. The shrimps were subsequently counted and categorized as either dead (not moving), affected (moving slowly, mostly at the bottom of the well) or normal (moving normally compared to the control at all levels of the well). The shrimps were then immobilized by addition of 100 μl of methanol. After 1 hour the total number of shrimps in each well was counted and the ratio (dead+affected)/total was calculated.

The structures appear in SMILES notation.

These results are taken from US20190256564A1, “NEMERTEA-DERIVED BIOACTIVE COMPOUNDS” (priority 2016, published 2019).

The IC50 is the concentration at which inhibition is half-maximal. Lower therefore signals greater potency in that assay. Compound `CC[C@H](C)[C@@H]1NC(=O)[C@@H](NC(=O)CN)CSSC[C@@H]2NC(=O)[C@@H]3CSSC[C@@H](C(=O)N[C@@H](CC(N)=O)C(=O)N4C[C@H](O)C[C@H]4C(=O)N4C[C@H](O)C[C@H]4C(=O)N[C@@H](CC(N)=O)C(=O)N[C@@H](CCC(N)=O)C(=O)O)NC(=O)[C@H](Cc4c[nH]cn4)NC(=O)[C@H](Cc4ccccc4)NC(=O)[C@H](CC(N)=O)NC(=O)[C@H](Cc4c[nH]c5ccccc45)NC(=O)CNC(=O)[C@H](CSSC[C@H](NC(=O)[C@H](Cc4ccccc4)NC(=O)[C@H](CO)NC(=O)CNC(=O)[C@H]([C@@H](C)O)NC(=O)[C@H](C)NC1=O)C(=O)N[C@@H]([C@@H](C)O)C(=O)N[C@@H](CC(C)C)C(=O)N[C@@H](CO)C(=O)N[C@@H](CCCCN)C(=O)NCC(=O)N3)NC(=O)[C@H](CC(N)=O)NC(=O)[C@H](CCCCN)NC(=O)[C@H]([C@@H](C)O)NC2=O` [Nemertide α-5] came in with an IC50 below 1000 nM.
